# Test results as given in paper PMC12027839, “Aging-Associated Amyloid-β Plaques and Neuroinflammation in Bottlenose Dolphins (Tursiops truncatus) and Novel Cognitive Health-Supporting Roles of Pentadecanoic Acid (C15:0)” (International Journal of Molecular Sciences, 2025).
# Experiments:
# [1] = target: T1, Monoamine oxidase B (MAO-B) (Homo sapiens, UniProt P27338); assay: Enzyme assay with human recombinant MAO-B (insect cells), kynuramine substrate, spectrofluorimetric, […] concentrations; format: biochemical
# T1 construct: gene MAOB
# [2] = target: T2, Fatty Acid Amide Hydrolase (FAAH) (Homo sapiens, UniProt O00519); assay: Enzyme assay with human recombinant FAAH (Sf21 cells), AMC arachidonoyl amide substrate, spectrofluorimetric, […] concentrations; format: biochemical
# [3] = target: T3, Sigma1 (Homo sapiens, UniProt Q99720); assay: biochemical; set-up: Eurofins Alzheimer's MoA LeadHunter radioligand binding assays; percent inhibition of specific binding, mean of duplicates; settings: Ligand or Substrate=[3H]Pentazocine
# T3 construct: gene SIGMAR1
# Description: (§1) Standardized enzyme and radioligand binding assays were used by an independent third party (Eurofins Discovery, Taiwan) to evaluate C15:0 across ten concentrations and up to 50 µM for activities as part of the Eurofins Discovery Alzheimer’s MoA LeadHunter Panel. Methods employed in this study were adapted from the scientific literature to maximize reliability and reproducibility. Reference standards were run as an integral part of each assay to ensure the validity of the results obtained. IC50 values were determined by a non-linear, least squares regression analysis using MathIQTM (ID Business Solutions Ltd., Woking, UK). This study included evaluated inhibition of the following targets by C15:0 using enzyme assays (Cholinesterase, Acetyl, ACES; Cholinesterase, Butyryl, CHLE; Peptidase, CTSB (Cathepsin B); Cyclooxygenase COX-1; Cyclooxygenase COX-2; Myeloperoxidase; IDO1; Monoamine Oxidase MAO-A; Monoamine Oxidase MAO-B; Peptidase, Endothelin Converting Enzyme-1 (ECE-1); Peptidase, Metalloproteinase, Neutral Endopeptidase; Peptidase, BACE1 (beta-Secretase); Protein Tyrosine Kinase, Fyn; Protein Serine/Threonine Kinase, GSK3B; Protein Serine/Threonine Kinase, MAPK14 (p38alpha); Protein Tyrosine Phosphatase, DUSP22; Fatty Acid Amide Hydrolase (FAAH); Nitric Oxide Synthetase, Inducible (iNOS); Catechol-O-Methyl Transferase (COMT); and Lipoxygenase 15-LOX-2) and radioligand binding assays (Adenosine A2A; Transporter, GABA; GABAA, Ro-15-1788, Hippocampus; Glutamate, AMPA; Glutamate, NMDA, MK-801; Glutamate, NMDA, Polyamine; Glutamate, Metabotropic, mGlu5; Histamine H3; Chemokine CX3CR1; Muscarinic M1; Nicotinic Acetylcholine alpha7, Methyllycaconitine; Serotonin (5-Hydroxytryptamine) 5-HT1A, WAY-100635; Serotonin (5-Hydroxytryptamine) 5-HT4B; Serotonin (5-Hydroxytryptamine) 5-HT6; Sodium Channel, Site 1; Somatostatin sst4; Sigma 2; Sigma1; Platelet Activating Factor (PAF)). Biochemical assay results were presented as the percent inhibition of specific binding or activity. […] Primary screening was conducted in duplicate with semi-quantitative data (e.g., estimated IC50). Significant responses (≥50% inhibition) were noted.
# [4] = target: T4, Serotonin (5-Hydroxytryptamine) 5-HT4B (Homo sapiens, UniProt Q13639); assay: biochemical; set-up: Eurofins Alzheimer's MoA LeadHunter radioligand binding assays; percent inhibition of specific binding, mean of duplicates; settings: Ligand or Substrate=[3H]GR-113808
# T4 construct: gene HTR4; isoform 5-HT4B
# Description: as §1
# [5] = target: T5, Somatostatin sst4 (Homo sapiens, UniProt P31391); assay: biochemical; set-up: Eurofins Alzheimer's MoA LeadHunter radioligand binding assays; percent inhibition of specific binding, mean of duplicates; settings: Ligand or Substrate=[125I]Tyr11-Somatostatin 14
# T5 construct: gene SSTR4
# Description: as §1
# [6] = target: T6, Glutamate, Metabotropic, mGlu5 (Homo sapiens, UniProt P41594); assay: biochemical; set-up: Eurofins Alzheimer's MoA LeadHunter radioligand binding assays; percent inhibition of specific binding, mean of duplicates; settings: Ligand or Substrate=[3H]Quisqualic acid
# T6 construct: gene GRM5
# Description: as §1
# [7] = target: T7, Muscarinic M1 (Homo sapiens, UniProt P11229); assay: biochemical; set-up: Eurofins Alzheimer's MoA LeadHunter radioligand binding assays; percent inhibition of specific binding, mean of duplicates; settings: Ligand or Substrate=[3H]N-Methylscopolamine
# T7 construct: gene CHRM1
# Description: as §1
# [8] = target: T8, Nicotinic Acetylcholine alpha7, Methyllycaconitine (Rattus norvegicus, UniProt Q05941); assay: biochemical; set-up: Eurofins Alzheimer's MoA LeadHunter radioligand binding assays; percent inhibition of specific binding, mean of duplicates; settings: Ligand or Substrate=[3H]Methyllycaconitine
# T8 construct: gene Chrna7; methyllycaconitine site
# Description: as §1
# [9] = target: T9, Histamine H3 (Homo sapiens, UniProt Q9Y5N1); assay: biochemical; set-up: Eurofins Alzheimer's MoA LeadHunter radioligand binding assays; percent inhibition of specific binding, mean of duplicates; settings: Ligand or Substrate=[3H]N-alpha-Methylhistamine (NAMH)
# T9 construct: gene HRH3
# Description: as §1
# [10] = target: T10, Serotonin (5-Hydroxytryptamine) 5-HT6 (Homo sapiens, UniProt P50406); assay: biochemical; set-up: Eurofins Alzheimer's MoA LeadHunter radioligand binding assays; percent inhibition of specific binding, mean of duplicates; settings: Ligand or Substrate=[3H]Lysergic acid diethylamide (LSD)
# T10 construct: gene HTR6
# Description: as §1
# [11] = target: Chemokine CX3CR1 (Homo sapiens, UniProt P49238); assay: biochemical; set-up: Eurofins Alzheimer's MoA LeadHunter radioligand binding assays; percent inhibition of specific binding, mean of duplicates; settings: Ligand or Substrate=[125I]Fractalkine
# Description: as §1
# [12] = target: T11, Adenosine A2A (Homo sapiens, UniProt P29274); assay: biochemical; set-up: Eurofins Alzheimer's MoA LeadHunter radioligand binding assays; percent inhibition of specific binding, mean of duplicates; settings: Ligand or Substrate=[3H]CGS-21680
# T11 construct: gene ADORA2A
# Description: as §1
# [13] = target: T12, Serotonin (5-Hydroxytryptamine) 5-HT1A, WAY-100635 (Homo sapiens, UniProt P08908); assay: biochemical; set-up: Eurofins Alzheimer's MoA LeadHunter radioligand binding assays; percent inhibition of specific binding, mean of duplicates; settings: Ligand or Substrate=[3H]WAY100635
# T12 construct: gene HTR1A; WAY-100635
# Description: as §1
# [14] = target: T13, Platelet Activating Factor (PAF) (Homo sapiens, UniProt P25105); assay: biochemical; set-up: Eurofins Alzheimer's MoA LeadHunter radioligand binding assays; percent inhibition of specific binding, mean of duplicates; settings: Ligand or Substrate=[3H]PAF
# T13 construct: gene PTAFR
# Description: as §1
# [15] = target: Protein Tyrosine Phosphatase, DUSP22 (Homo sapiens, UniProt Q9NRW4); assay: biochemical; set-up: Eurofins Alzheimer's MoA LeadHunter enzyme assays; percent inhibition of enzyme activity, mean of duplicates; settings: Ligand or Substrate=DiFMUP
# Description: as §1
# [16] = target: T14, Cyclooxygenase COX-1 (Homo sapiens, UniProt P23219); assay: biochemical; set-up: Eurofins Alzheimer's MoA LeadHunter enzyme assays; percent inhibition of enzyme activity, mean of duplicates; settings: Ligand or Substrate=Arachidonic acid
# T14 construct: gene PTGS1
# Description: as §1
# [17] = target: T15, Cyclooxygenase COX-2 (Homo sapiens, UniProt P35354); assay: biochemical; set-up: Eurofins Alzheimer's MoA LeadHunter enzyme assays; percent inhibition of enzyme activity, mean of duplicates; settings: Ligand or Substrate=Arachidonic acid
# T15 construct: gene PTGS2
# Description: as §1
# [18] = target: Protein Serine/Threonine Kinase, MAPK14 (p38alpha) (Homo sapiens, UniProt Q16539); assay: biochemical; set-up: Eurofins Alzheimer's MoA LeadHunter enzyme assays; percent inhibition of enzyme activity, mean of duplicates; settings: Ligand or Substrate=Myelin Basic Protein (MBP)
# Description: as §1
# [19] = target: T16, Peptidase, Endothelin Converting Enzyme-1 (ECE-1) (Homo sapiens, UniProt P42892); assay: biochemical; set-up: Eurofins Alzheimer's MoA LeadHunter enzyme assays; percent inhibition of enzyme activity, mean of duplicates; settings: Ligand or Substrate=Mca-[…]Dnp)
# T16 construct: gene ECE1
# Description: as §1
# [20] = target: T2, Fatty Acid Amide Hydrolase (FAAH); assay: biochemical; set-up: Eurofins Alzheimer's MoA LeadHunter enzyme assays; percent inhibition of enzyme activity, mean of duplicates; settings: Ligand or Substrate=AMC arachidonoyl amide
# Description: as §1
# [21] = target: T17, Cholinesterase, Acetyl, ACES (Homo sapiens, UniProt P22303); assay: biochemical; set-up: Eurofins Alzheimer's MoA LeadHunter enzyme assays; percent inhibition of enzyme activity, mean of duplicates; settings: Ligand or Substrate=Acetylthiocholine
# T17 construct: gene ACHE
# Description: as §1
# [22] = target: Peptidase, BACE1 (beta-Secretase) (Homo sapiens, UniProt P56817); assay: biochemical; set-up: Eurofins Alzheimer's MoA LeadHunter enzyme assays; percent inhibition of enzyme activity, mean of duplicates; settings: Ligand or Substrate=MOCAc-S-E-V-N-L-D-A-E-F-R-K(Dnp)-R-R-NH2
# Description: as §1
# [23] = target: Protein Serine/Threonine Kinase, GSK3B (Homo sapiens, UniProt P49841); assay: biochemical; set-up: Eurofins Alzheimer's MoA LeadHunter enzyme assays; percent inhibition of enzyme activity, mean of duplicates; settings: Ligand or Substrate=Phospho-glycogen synthase peptide-2
# Description: as §1
# [24] = target: T18, Monoamine Oxidase MAO-A (Homo sapiens, UniProt P21397); assay: biochemical; set-up: Eurofins Alzheimer's MoA LeadHunter enzyme assays; percent inhibition of enzyme activity, mean of duplicates; settings: Ligand or Substrate=Kynuramine
# T18 construct: gene MAOA
# Description: as §1
# [25] = target: T19, Lipoxygenase 15-LOX-2 (Homo sapiens, UniProt O15296); assay: biochemical; set-up: Eurofins Alzheimer's MoA LeadHunter enzyme assays; percent inhibition of enzyme activity, mean of duplicates; settings: Ligand or Substrate=AMC arachidonoyl amide
# T19 construct: gene ALOX15B
# Description: as §1
# [26] = target: T20, Peptidase, Metalloproteinase, Neutral Endopeptidase (Homo sapiens, UniProt P08473); assay: biochemical; set-up: Eurofins Alzheimer's MoA LeadHunter enzyme assays; percent inhibition of enzyme activity, mean of duplicates; settings: Ligand or Substrate=Mca-R-P-P-G-F-S-A-F-K(Dnp)-OH
# T20 construct: gene MME
# Description: as §1
# [27] = target: T21, Cholinesterase, Butyryl, CHLE (Homo sapiens, UniProt P06276); assay: biochemical; set-up: Eurofins Alzheimer's MoA LeadHunter enzyme assays; percent inhibition of enzyme activity, mean of duplicates; settings: Ligand or Substrate=S-Butyrylthiocholine
# T21 construct: gene BCHE
# Description: as §1
# [28] = target: Peptidase, CTSB (Cathepsin B) (Homo sapiens, UniProt P07858); assay: biochemical; set-up: Eurofins Alzheimer's MoA LeadHunter enzyme assays; percent inhibition of enzyme activity, mean of duplicates; settings: Ligand or Substrate=Boc-Leu-Arg-Arg-AMC
# Description: as §1
# [29] = target: T22, Myeloperoxidase (Homo sapiens, UniProt P05164); assay: biochemical; set-up: Eurofins Alzheimer's MoA LeadHunter enzyme assays; percent inhibition of enzyme activity, mean of duplicates; settings: Ligand or Substrate=Guaiacol
# T22 construct: gene MPO
# Description: as §1
# [30] = target: T23, Monoamine Oxidase MAO-B (Homo sapiens, UniProt P27338); assay: biochemical; set-up: Eurofins Alzheimer's MoA LeadHunter enzyme assays; percent inhibition of enzyme activity, mean of duplicates; settings: Ligand or Substrate=Kynuramine
# T23 construct: gene MAOB
# Description: as §1
# [31] = target: IDO1 (Homo sapiens, UniProt P14902); assay: biochemical; set-up: Eurofins Alzheimer's MoA LeadHunter enzyme assays; percent inhibition of enzyme activity, mean of duplicates; settings: Ligand or Substrate=L-tryptophan (L-Trp)
# Description: as §1
# [32] = target: Catechol-O-Methyl Transferase (COMT) (Sus scrofa, UniProt Q99028); assay: biochemical; set-up: Eurofins Alzheimer's MoA LeadHunter enzyme assays; percent inhibition of enzyme activity, mean of duplicates; settings: Ligand or Substrate=Esculetin
# Description: as §1
# [33] = target: Protein Tyrosine Kinase, Fyn (Homo sapiens, UniProt P06241); assay: biochemical; set-up: Eurofins Alzheimer's MoA LeadHunter enzyme assays; percent inhibition of enzyme activity, mean of duplicates; settings: Ligand or Substrate=Poly(Glu:Tyr)
# Description: as §1
# T2 sequence (O00519 whole entry): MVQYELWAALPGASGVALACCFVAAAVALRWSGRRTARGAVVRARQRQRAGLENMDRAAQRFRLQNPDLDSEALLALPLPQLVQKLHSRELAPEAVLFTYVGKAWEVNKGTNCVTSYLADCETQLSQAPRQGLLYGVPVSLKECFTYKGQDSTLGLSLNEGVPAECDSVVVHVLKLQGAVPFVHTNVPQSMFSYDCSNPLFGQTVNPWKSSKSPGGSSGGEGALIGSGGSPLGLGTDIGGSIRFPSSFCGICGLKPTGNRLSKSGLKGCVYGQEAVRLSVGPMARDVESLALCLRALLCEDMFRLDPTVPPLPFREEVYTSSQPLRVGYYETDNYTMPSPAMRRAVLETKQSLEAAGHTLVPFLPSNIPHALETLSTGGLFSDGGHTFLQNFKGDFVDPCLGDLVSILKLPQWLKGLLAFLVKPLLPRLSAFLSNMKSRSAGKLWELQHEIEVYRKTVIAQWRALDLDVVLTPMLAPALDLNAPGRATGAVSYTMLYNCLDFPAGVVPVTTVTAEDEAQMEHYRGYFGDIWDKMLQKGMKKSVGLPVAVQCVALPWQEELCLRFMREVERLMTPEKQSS
# T14 sequence (P23219 whole entry): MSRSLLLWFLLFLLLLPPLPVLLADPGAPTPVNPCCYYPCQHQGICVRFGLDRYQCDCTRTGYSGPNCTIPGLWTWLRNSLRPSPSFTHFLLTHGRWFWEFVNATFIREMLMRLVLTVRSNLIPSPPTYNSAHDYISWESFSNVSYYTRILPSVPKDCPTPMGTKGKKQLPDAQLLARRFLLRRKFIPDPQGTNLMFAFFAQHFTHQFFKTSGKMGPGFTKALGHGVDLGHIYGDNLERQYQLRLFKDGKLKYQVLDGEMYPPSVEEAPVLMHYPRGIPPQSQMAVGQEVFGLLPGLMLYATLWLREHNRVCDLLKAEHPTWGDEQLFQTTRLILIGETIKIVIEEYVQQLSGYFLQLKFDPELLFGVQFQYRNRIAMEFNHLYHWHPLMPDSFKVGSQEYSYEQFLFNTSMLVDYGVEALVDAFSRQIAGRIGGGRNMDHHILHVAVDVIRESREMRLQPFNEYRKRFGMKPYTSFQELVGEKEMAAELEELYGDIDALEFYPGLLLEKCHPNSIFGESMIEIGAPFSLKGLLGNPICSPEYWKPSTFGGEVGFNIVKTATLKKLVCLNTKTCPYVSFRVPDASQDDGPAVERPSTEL
# T6 sequence (P41594 whole entry): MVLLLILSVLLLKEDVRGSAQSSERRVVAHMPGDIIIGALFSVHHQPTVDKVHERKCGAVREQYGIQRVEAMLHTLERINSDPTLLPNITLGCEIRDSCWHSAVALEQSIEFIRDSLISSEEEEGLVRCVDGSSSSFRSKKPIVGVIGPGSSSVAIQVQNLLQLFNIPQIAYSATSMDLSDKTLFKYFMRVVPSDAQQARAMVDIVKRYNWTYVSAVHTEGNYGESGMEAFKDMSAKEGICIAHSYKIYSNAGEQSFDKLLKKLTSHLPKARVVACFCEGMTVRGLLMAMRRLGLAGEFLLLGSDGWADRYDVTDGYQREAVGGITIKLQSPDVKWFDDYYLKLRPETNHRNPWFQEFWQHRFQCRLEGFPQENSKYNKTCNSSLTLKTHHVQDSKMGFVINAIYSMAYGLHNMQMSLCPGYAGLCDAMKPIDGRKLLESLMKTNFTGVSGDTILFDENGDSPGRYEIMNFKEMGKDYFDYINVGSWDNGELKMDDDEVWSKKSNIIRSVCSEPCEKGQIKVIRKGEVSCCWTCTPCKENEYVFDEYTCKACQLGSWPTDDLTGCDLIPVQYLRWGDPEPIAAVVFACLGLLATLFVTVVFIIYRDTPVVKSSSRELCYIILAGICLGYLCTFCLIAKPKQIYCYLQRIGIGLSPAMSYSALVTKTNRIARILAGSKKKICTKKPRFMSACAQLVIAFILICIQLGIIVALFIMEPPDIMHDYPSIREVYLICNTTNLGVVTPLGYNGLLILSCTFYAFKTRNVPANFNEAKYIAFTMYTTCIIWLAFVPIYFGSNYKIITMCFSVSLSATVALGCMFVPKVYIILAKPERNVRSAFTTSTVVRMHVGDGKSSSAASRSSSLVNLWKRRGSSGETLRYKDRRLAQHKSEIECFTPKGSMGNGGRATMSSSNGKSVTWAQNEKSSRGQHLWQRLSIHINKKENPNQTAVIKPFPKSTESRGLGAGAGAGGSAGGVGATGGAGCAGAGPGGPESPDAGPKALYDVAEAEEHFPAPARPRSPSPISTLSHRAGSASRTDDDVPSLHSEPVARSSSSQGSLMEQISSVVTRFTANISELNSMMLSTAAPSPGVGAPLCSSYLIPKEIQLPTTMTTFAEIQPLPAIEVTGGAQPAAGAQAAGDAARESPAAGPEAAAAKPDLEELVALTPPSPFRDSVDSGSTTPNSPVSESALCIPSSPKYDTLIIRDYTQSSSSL
# T7 sequence (P11229 whole entry): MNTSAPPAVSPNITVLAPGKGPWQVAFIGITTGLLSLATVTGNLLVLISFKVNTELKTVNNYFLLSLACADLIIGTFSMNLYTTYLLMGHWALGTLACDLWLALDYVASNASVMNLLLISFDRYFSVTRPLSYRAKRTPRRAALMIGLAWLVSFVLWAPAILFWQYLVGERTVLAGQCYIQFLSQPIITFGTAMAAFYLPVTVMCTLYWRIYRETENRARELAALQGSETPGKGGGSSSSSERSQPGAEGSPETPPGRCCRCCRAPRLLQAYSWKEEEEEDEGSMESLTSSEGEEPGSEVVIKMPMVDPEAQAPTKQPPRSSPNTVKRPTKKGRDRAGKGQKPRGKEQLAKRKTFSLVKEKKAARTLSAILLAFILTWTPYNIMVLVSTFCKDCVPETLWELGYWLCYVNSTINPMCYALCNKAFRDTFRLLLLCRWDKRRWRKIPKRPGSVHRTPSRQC
# T11 sequence (P29274 whole entry): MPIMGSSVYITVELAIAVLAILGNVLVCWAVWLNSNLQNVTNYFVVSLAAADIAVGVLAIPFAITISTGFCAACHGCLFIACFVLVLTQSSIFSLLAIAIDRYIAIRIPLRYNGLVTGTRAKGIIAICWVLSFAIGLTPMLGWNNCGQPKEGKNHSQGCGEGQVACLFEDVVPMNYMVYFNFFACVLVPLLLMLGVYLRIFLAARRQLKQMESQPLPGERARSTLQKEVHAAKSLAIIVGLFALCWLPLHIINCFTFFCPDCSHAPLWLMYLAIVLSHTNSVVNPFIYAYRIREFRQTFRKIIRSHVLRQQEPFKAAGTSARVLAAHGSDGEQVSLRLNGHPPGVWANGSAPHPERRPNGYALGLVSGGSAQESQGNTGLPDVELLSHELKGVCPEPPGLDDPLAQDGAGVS
# Chain of Peptidase, BACE1 (beta-Secretase) (P56817 whole entry): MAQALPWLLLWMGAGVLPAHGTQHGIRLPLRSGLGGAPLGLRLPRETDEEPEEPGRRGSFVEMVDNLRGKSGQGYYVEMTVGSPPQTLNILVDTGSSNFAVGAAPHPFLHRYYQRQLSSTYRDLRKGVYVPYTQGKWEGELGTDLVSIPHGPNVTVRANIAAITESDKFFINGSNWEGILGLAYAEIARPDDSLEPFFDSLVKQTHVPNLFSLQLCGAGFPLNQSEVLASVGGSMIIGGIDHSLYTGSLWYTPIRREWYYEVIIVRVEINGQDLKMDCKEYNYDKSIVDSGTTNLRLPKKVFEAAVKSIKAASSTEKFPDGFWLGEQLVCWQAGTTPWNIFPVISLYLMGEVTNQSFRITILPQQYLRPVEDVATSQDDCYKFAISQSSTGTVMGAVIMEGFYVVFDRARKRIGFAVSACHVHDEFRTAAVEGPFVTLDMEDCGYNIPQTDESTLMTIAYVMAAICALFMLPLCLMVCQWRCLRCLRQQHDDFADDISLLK
# T16 sequence (P42892 whole entry): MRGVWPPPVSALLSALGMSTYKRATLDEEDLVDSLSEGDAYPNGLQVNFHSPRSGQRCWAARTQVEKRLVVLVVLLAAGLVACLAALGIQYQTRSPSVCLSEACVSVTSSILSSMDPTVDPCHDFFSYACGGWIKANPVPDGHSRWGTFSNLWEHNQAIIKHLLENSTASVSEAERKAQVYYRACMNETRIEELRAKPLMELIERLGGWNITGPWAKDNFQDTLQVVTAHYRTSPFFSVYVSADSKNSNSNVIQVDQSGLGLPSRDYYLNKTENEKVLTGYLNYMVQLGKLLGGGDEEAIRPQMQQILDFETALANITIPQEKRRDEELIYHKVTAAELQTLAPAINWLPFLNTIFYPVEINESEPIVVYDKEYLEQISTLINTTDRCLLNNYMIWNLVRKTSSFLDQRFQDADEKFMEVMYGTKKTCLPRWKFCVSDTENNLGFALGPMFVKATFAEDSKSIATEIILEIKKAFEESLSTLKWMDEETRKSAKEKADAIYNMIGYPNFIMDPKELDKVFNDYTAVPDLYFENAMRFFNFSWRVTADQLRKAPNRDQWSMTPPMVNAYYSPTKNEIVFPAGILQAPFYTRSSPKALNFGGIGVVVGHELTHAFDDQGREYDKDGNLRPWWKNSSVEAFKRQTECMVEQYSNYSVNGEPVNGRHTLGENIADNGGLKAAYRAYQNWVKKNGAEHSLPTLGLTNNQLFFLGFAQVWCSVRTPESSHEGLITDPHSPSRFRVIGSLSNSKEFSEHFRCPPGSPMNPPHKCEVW
# Chain of Protein Serine/Threonine Kinase, GSK3B (P49841 whole entry): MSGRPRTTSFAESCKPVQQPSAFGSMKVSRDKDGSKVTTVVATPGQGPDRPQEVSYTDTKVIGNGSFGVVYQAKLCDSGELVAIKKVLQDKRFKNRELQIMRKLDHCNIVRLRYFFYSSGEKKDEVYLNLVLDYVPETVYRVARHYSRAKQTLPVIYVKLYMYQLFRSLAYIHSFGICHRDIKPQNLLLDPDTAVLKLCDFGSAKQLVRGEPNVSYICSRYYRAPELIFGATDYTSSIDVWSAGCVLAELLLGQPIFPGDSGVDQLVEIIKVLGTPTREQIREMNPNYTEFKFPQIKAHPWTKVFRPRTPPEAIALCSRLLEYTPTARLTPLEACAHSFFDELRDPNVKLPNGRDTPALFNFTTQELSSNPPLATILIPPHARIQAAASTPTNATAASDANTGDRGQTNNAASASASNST
compound,measurement,setting,value
"CCCCCCCCCCCCCCC(=O)O [C15:0, Pentadecanoic acid]",IC50,[1],19.4 µM
same,IC50,[2],2.51 µM
same,inhibition at 20 µM,[3],-18.6%
same,inhibition at 20 µM,[4],-1.7%
same,inhibition at 20 µM,[5],-4.4%
same,inhibition at 20 µM,[6],0%
same,inhibition at 20 µM,[7],9%
same,inhibition at 20 µM,[8],-9.1%
same,inhibition at 20 µM,[9],1.7%
same,inhibition at 20 µM,[10],-16.1%
same,inhibition at 20 µM,[11],5.3%
same,inhibition at 20 µM,[12],10.7%
same,inhibition at 20 µM,[13],3.9%
same,inhibition at 20 µM,[14],-6.6%
same,inhibition at 20 µM,[15],-28.1%
same,inhibition at 20 µM,[16],-17%
same,inhibition at 20 µM,[17],5.3%
same,inhibition at 20 µM,[18],-14.8%
same,inhibition at 20 µM,[19],7.1%
same,inhibition at 20 µM,[20],70.3%
same,inhibition at 20 µM,[21],44.7%
same,inhibition at 20 µM,[22],2.4%
same,inhibition at 20 µM,[23],15%
same,inhibition at 20 µM,[24],11.4%
same,inhibition at 20 µM,[25],8%
same,inhibition at 20 µM,[26],2.1%
same,inhibition at 20 µM,[27],2.5%
same,inhibition at 20 µM,[28],-35.2%
same,inhibition at 20 µM,[29],44.8%
same,inhibition at 20 µM,[30],64.7%
same,inhibition at 20 µM,[31],39.4%
same,inhibition at 20 µM,[32],1.5%
same,inhibition at 20 µM,[33],-16.2%
